Consider three compounds from US9381281B2, “Drug eluting mesh to prevent infection of indwelling transdermal devices” (TYRX, INC., priority 2011, dated 2016).

Values after ≈ are worked out from the molar mass of the structure shown.

One experiment deals with myofibroblast formation. As to conditions: animal studies of capsular contracture with breast implants (Ajmal et al. 2003); cited from earlier work.
Experiment [1] has as its system Acinetobacter baumanii A TCC 19606. Nature of the experiment: Broth dilution MIC. To be noted: Acinetobacter baumannii, ATCC19606, read-out: Minimum Inhibitory Concentration. The format is cell-based. From the text:
(§1) Establishing the MIC of antimicrobials is a necessary step in the process of establishing effective use concentrations. Approved standards for this activity with antibiotics are published by NCCLS. These standards are primarily intended for use in clinical settings with patient isolates. However, they represent a consensus methodology for best practice in determining MICs that are reproducible and defensible. The principles upon which they are based provide a sound framework for determining the MIC for the test.
(§2) The broth dilution method was used to measure quantitatively the in vitro activity of an antimicrobial agent against a given microbial isolate. To perform the test, a series of tubes were prepared with a broth to which various concentrations of the antimicrobial agent were added. The tubes were then inoculated with a standardized suspension of the test organism. After incubation the tubes were examined and the minimal inhibitory concentration (MIC) was determined.
(§3) The following organism were used: Acinetobacter baumanii A TCC 19606; Staphylococcus epidermidis A TCC 14990; Staphylococcus aureus ATCC 6538; Methicillin-resistant Staphylococcus aureus ATCC 33591; Escherichia coli ATCC 8739; Staphylococcus capitis ATCC 35661; or Staphylococcus schleiferi ATCC 43808.
(Dilution methods test growth across graded concentrations, often in twofold steps.)

Experiment [2] deals with Escherichia coli ATCC 8739. Description: Broth dilution MIC. As to conditions: ATCC8739, E. coli, read-out: Minimum Inhibitory Concentration. The experiment is classed as cell-based.
Source text: as §1, §2, §3

In experiment [3] the test system is Methicillin-resistant Staphylococcus aureus ATCC 33591. Description: Broth dilution MIC. The format is cell-based. As to conditions: ATCC 33591 / MRSA, read-out: Minimum Inhibitory Concentration.
Source text: as §1, §2, §3

Experiment [4] has as its system Staphylococcus aureus ATCC 6538. Nature of the experiment: Broth dilution MIC. The experiment is classed as cell-based. To be noted: ATCC6538, S. aureus, read-out: Minimum Inhibitory Concentration.
Source text: as §1, §2, §3

Experiment [5] deals with Staphylococcus capitis ATCC 35661. Description: Broth dilution MIC. The experiment is classed as cell-based. As to conditions: ATCC35661, S. capitis, read-out: Minimum Inhibitory Concentration.
Source text: as §1, §2, §3

For experiment [6], the system named is Staphylococcus epidermidis A TCC 14990. Description: Broth dilution MIC. The experiment is classed as cell-based. To be noted: ATCC14990, S. epidermidis, read-out: Minimum Inhibitory Concentration.
Source text: as §1, §2, §3

Experiment [7] relates to Staphylococcus schleiferi ATCC 43808. Nature of the experiment: Broth dilution MIC. The format is cell-based. To be noted: ATCC43808, read-out: Minimum Inhibitory Concentration.
Source text: as §1, §2, §3

As to `O=S(=O)([O-])CCS.[Na+]` [Mesna, sodium 2-mercaptoethane sulfonate], in the experiment on myofibroblast formation, the myofibroblast formation result is “diminish myofibroblast formation”.
As to `CN(C)c1ccc(O)c2c1C[C@H]1C[C@H]3[C@H](N(C)C)C(O)=C(C(N)=O)C(=O)[C@@]3(O)C(O)=C1C2=O` [Minocycline], the MIC in experiment [1] was determined as 0.14 µg/mL (≈ 0.306 µM); in experiment [2], 2.23 µg/mL (≈ 4.88 µM); in experiment [3] it was 2.23 µg/mL (≈ 4.88 µM); in experiment [4], 0.017 µg/mL (≈ 0.0372 µM); in experiment [5], 0.017 µg/mL (≈ 0.0372 µM); in experiment [6] it was 0.017 µg/mL (≈ 0.0372 µM). Moreover, the MIC in experiment [7] was 0.017 µg/mL (≈ 0.0372 µM).
As to `CO[C@H]1/C=C/O[C@@]2(C)Oc3c(C)c(O)c4c(O)c(c(/C=N/N5CCN(C)CC5)c(O)c4c3C2=O)NC(=O)/C(C)=C\C=C\[C@H](C)[C@H](O)[C@@H](C)[C@@H](O)[C@@H](C)[C@H](OC(C)=O)[C@@H]1C` [Rifampin], the MIC stood at 0.129 µg/mL (≈ 0.157 µM) in experiment [1]; 2.06 µg/mL (≈ 2.5 µM) in experiment [2]; 2.06 µg/mL (≈ 2.5 µM) in experiment [3]; 0.016 µg/mL (≈ 0.0194 µM) in experiment [4]; 0.016 µg/mL (≈ 0.0194 µM) in experiment [5]; 0.016 µg/mL (≈ 0.0194 µM) in experiment [6]. In experiment [7], the MIC stood at 0.016 µg/mL (≈ 0.0194 µM).
